Measured values taken from ChEMBL document CHEMBL1131766, “On the analogy between forskolin and D-glucose” (Bioorg Med Chem Lett, 1999).

How the values were obtained:
Rattus norvegicus [1] = organism: Rattus norvegicus; assay: Compound was tested for inhibition of glucose transport in rat adipocyte; type: functional, organism-based
Rattus norvegicus [2] = organism: Rattus norvegicus; assay: Compound was tested for inhibition of glucose transport in adipocytes plasma membrane vesicles using [H]-forskolin as radioligand; type: functional
Homo sapiens [3] = organism: Homo sapiens; assay: Compound was testd for inhibition of glucose transport human platelets using [H]-forskolin as radioligand; type: functional, organism-based
Homo sapiens [4] = organism: Homo sapiens; assay: Compound was testd for inhibition of glucose transport human erythrocytes using [H]-forskolin as radioligand; type: functional, organism-based

Row | Ki (Rattus norvegicus [1]) | EC50 (Rattus norvegicus [2]) | EC50 (Homo sapiens [3]) | EC50 (Homo sapiens [4]) | SMILES
1 | 8500 µM | – | – | – | CC(=O)O[C@@H]1[C@@H](O)[C@H](O)[C@@H](CO)O[C@@H]1O
2 | – | 7.1 µM | – | – | C=C[C@@]1(C)CC(=O)[C@]2(O)[C@@]3(C)[C@@H](O)CCC(C)(C)[C@@H]3[C@H](O)[C@H](O)[C@@]2(C)O1
3 | – | 0.24 µM | 0.24 µM | 0.24 µM | C=C[C@@]1(C)CC(=O)[C@]2(O)[C@@]3(C)[C@@H](O)CCC(C)(C)[C@@H]3[C@H](O)[C@H](OC(C)=O)[C@@]2(C)O1 [COLFORSIN]
